# Laboratory results taken from PMC6083370, “Influence of OATPs on Hepatic Disposition of Erlotinib Measured With Positron Emission Tomography” (Clinical Pharmacology and Therapeutics, 2017).
# Where “and” joins values, the source holds several entries; their conditions need not be identical. Equal values may be shown once. Read-outs that look alike come from different tables or passages of the source.
# Experiments:
# [1] = design: method as in PMID 27036206; details: combination of erlotinib with rosuvastatin, 24 patients; cited from earlier work
# OATP2B1 [2] = system: OATP2B1; design: method as in PMID 28005438; details: cited from earlier work
# OATP2B1 (SLCO2B1) = target: T1, OATP2B1 (SLCO2B1) (Homo sapiens, UniProt O94956); details: for Michaelis constant (K m) of the saturable component of OATP2B1‐specific uptake: 7.5 min, erlotinib 0.05–2.05 μM, ± standard error; for effect on [^11C]erlotinib uptake in OATP2B1 overexpressing cells: erlotinib 1 μM, cyclosporine A 10 μM, rifampicin 100 μM, 5 min
# T1 sequence (O94956 1-709): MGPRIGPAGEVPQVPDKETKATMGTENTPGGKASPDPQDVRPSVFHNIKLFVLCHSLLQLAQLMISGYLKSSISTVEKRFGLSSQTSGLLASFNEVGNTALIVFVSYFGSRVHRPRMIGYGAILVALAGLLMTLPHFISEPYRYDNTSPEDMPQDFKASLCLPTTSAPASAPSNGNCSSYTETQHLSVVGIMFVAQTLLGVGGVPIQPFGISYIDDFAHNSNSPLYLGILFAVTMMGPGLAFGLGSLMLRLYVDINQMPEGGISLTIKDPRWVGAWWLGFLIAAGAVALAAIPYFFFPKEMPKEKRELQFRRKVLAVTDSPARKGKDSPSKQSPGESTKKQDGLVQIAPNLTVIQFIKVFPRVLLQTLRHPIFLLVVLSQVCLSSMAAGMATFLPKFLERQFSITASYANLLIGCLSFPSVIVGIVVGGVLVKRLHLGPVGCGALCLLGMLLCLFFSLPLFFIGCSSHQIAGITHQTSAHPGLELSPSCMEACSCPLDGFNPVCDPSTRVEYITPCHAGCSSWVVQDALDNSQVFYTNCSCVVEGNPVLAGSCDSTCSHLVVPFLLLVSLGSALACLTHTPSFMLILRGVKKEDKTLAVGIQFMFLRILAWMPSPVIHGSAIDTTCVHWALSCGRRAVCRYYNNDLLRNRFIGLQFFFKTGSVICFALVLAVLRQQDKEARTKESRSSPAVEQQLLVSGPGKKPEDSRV
# Description: OATP overexpression was confirmed by Western blotting. Functionality of the OATPs was verified by [^3H]estrone-3-sulfate uptake experiments. A431 cells transfected with the empty vector were used as a negative control. All cell lines were cultured in Dulbecco's modified eagle medium supplemented with 10% fetal bovine serum, 2 mM L-glutamine, 100 units/mL penicillin and 100 µg/mL streptomycin. […] On the day of the experiment, growth medium was aspired and cells were washed with pre-warmed transport buffer (Hank's balanced salt solution supplemented with 10 mM N-2-hydroxyethylpiperazine-N-2-ethane sulfonic acid). […] Then the drug solutions were removed and cells were washed with pre-warmed transport buffer. […] For time dependency experiments, pre-warmed transport buffer was added and cells were incubated for 30 min. […] For concentration dependency experiments, pre-warmed transport buffer was added and cells were incubated for 30 min. […] In all experiments, cell count was determined on separate 24-well tissue culture plates before or after each experiment. In all experiments, radiotracer solutions were aspired following incubation and cells were washed twice with ice-cold transport buffer. […] Each inhibition experiment was performed 2 times with 3 technical replicates each and radioactivity in cells was corrected for radioactive decay, normalized to 10^6 cells and expressed as percent of vector control (% control). The time dependency experiment was performed once with 3 technical replicates and radioactivity in cells was corrected for radioactive decay and expressed as percent of applied dose per 10^6 cells (%AD/10^6 cells). The concentration dependency experiment was performed once with 3 technical replicates and radioactivity in cells was corrected for radioactive decay. Kinetic parameters were determined using a previously described method.^2 In brief, cellular radioactivity uptake was converted into units of pmol/min/10^6 cells. OATP2B1-specific uptake of erlotinib was determined by subtracting the uptake into cells transfected with the empty vector from the uptake into cells transfected with OATP2B1. The following equation was used to obtain kinetic parameters:
# where v is the uptake velocity of erlotinib (pmol/min/10^6 cells), S is the erlotinib concentration in the transport buffer (µM), Km is the Michaelis constant (µM), Vmax is the maximum uptake velocity (pmol/min/10^6 cells), and Pdif is the non-saturable uptake clearance (µL/min/10^6 cells). Curve fitting was performed by the non-linear regression method with a modified Michaelis-Menten model according to equation 1 using Prism 6.0 software (GraphPad Software).
# [3] = design: method as in PMID 23887590; details: following ritonavir pretreatment; cited from earlier work
# [4] = Plasma pharmacokinetics of unlabeled erlotinib after 300 mg oral dose (HPLC-UV); format: in vivo, human
# Description: One female and five male healthy volunteers (mean age: 27 ± 6 years, mean weight: 79 ± 7 kg) were enrolled in the study. […] Radioactivity in the upper abdominal region was measured over 90 min by employing a consecutive frame sequence of 1 × 15, 3 × 5, 3 × 10, 2 × 30, 3 × 60, 2 × 150, and 16 × 300 sec. […] For both PET scans, subjects were asked to fast for at least 6 h before radiotracer injection. Approximately 3 h before start of the second PET scan, an oral dose of 300 mg erlotinib (Tarceva, Roche Pharma, Nutley, NJ; two 150‐mg tablets) was administered. […] Blood samples were centrifuged to obtain plasma, which was kept at −80°C until analysis of erlotinib concentrations.
# Aliquots of blood and plasma were measured for radioactivity in a gamma‐counter, which was cross‐calibrated with the PET camera. […] The concentration of unlabeled erlotinib in plasma was determined by high‐performance liquid chromatography with ultraviolet detection (Supplementary Methods). Pharmacokinetic parameters of erlotinib in plasma were determined with the Kinetica 2000 software package, v. 3.0 (InnaPhase).
# The concentration of unlabeled erlotinib in plasma was determined by high-performance liquid chromatography (HPLC) using a Dionex UltiMate 3000 system (Dionex Corp., Sunnyvale, USA) with ultraviolet (UV) detection at 331 nm. After the addition of 600 µL ice-cold methanol to 200 µL of plasma, the samples were centrifuged (13,000 g for 5 min) and 80 µL of clear supernatant was injected onto a Hypersil BDS-C18 column (5 µm, 250 x 4.6 mm I.D., Thermo Fisher Scientific, Inc, Waltham, USA), preceded by a Hypersil BDS-C18 pre-column (5 µm, 10 x 4.6 mm I.D.) and kept at 40°C. The mobile phase consisted of a continuous gradient mixed from aqueous ammonium acetate buffer (10 mM, pH = 5.0) (solvent A) and acetonitrile (solvent B) at a flow rate of 1.0 mL/min.
# [5] = Tolerability of study medication in healthy volunteers; format: in vivo, human; details: microdose (<10 μg) i.v. and 300 mg oral
# Description: One female and five male healthy volunteers (mean age: 27 ± 6 years, mean weight: 79 ± 7 kg) were enrolled in the study. […] Radioactivity in the upper abdominal region was measured over 90 min by employing a consecutive frame sequence of 1 × 15, 3 × 5, 3 × 10, 2 × 30, 3 × 60, 2 × 150, and 16 × 300 sec. In parallel to PET imaging, serial blood samples were drawn from the radial artery for the first 2.5 min, followed by samples at 3.5, 5, 10, 20, 30, 40, 60, and 80 min after radiotracer injection. For both PET scans, subjects were asked to fast for at least 6 h before radiotracer injection. Approximately 3 h before start of the second PET scan, an oral dose of 300 mg erlotinib (Tarceva, Roche Pharma, Nutley, NJ; two 150‐mg tablets) was administered. Ten blood samples were collected at baseline and hourly for 8 h and at ∼21 h after erlotinib intake. Blood samples were centrifuged to obtain plasma, which was kept at −80°C until analysis of erlotinib concentrations.
# OATP1B1 (SLCO1B1) = target: T2, OATP1B1 (SLCO1B1) (Homo sapiens, UniProt Q9Y6L6); details: erlotinib 1 μM, cyclosporine A 10 μM, rifampicin 100 μM; 5 min
# T2 sequence (Q9Y6L6 1-691): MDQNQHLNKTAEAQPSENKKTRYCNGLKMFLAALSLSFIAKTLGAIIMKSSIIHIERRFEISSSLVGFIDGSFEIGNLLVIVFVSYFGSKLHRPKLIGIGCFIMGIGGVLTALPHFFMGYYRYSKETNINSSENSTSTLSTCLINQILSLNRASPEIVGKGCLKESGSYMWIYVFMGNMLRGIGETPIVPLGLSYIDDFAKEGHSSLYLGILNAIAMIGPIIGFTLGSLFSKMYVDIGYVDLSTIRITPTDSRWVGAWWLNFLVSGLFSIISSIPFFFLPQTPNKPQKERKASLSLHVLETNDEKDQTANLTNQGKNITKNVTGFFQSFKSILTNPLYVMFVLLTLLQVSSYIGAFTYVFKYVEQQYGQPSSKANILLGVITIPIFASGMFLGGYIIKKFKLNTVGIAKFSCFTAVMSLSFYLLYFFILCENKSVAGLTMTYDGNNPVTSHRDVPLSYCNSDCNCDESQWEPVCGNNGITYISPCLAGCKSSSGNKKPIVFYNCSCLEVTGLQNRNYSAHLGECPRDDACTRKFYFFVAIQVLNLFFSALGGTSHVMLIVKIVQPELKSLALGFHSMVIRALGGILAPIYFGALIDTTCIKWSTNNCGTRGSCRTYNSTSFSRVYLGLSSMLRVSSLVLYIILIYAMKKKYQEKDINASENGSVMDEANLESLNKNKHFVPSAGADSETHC
# Description: (§1) A431 cells transfected with the empty vector were used as a negative control. All cell lines were cultured in Dulbecco's modified eagle medium supplemented with 10% fetal bovine serum, 2 mM L-glutamine, 100 units/mL penicillin and 100 µg/mL streptomycin. […] On the day of the experiment, growth medium was aspired and cells were washed with pre-warmed transport buffer (Hank's balanced salt solution supplemented with 10 mM N-2-hydroxyethylpiperazine-N-2-ethane sulfonic acid). […] Then the drug solutions were removed and cells were washed with pre-warmed transport buffer. […] For time dependency experiments, pre-warmed transport buffer was added and cells were incubated for 30 min. […] In all experiments, cell count was determined on separate 24-well tissue culture plates before or after each experiment. […] Each inhibition experiment was performed 2 times with 3 technical replicates each and radioactivity in cells was corrected for radioactive decay, normalized to 10^6 cells and expressed as percent of vector control (% control). The time dependency experiment was performed once with 3 technical replicates and radioactivity in cells was corrected for radioactive decay and expressed as percent of applied dose per 10^6 cells (%AD/10^6 cells). The concentration dependency experiment was performed once with 3 technical replicates and radioactivity in cells was corrected for radioactive decay. […]
# OATP1B3 (SLCO1B3) = target: T3, OATP1B3 (SLCO1B3) (Homo sapiens, UniProt Q9NPD5); details: erlotinib 1 μM, cyclosporine A 10 μM, rifampicin 100 μM; 5 min
# T3 sequence (Q9NPD5 1-702): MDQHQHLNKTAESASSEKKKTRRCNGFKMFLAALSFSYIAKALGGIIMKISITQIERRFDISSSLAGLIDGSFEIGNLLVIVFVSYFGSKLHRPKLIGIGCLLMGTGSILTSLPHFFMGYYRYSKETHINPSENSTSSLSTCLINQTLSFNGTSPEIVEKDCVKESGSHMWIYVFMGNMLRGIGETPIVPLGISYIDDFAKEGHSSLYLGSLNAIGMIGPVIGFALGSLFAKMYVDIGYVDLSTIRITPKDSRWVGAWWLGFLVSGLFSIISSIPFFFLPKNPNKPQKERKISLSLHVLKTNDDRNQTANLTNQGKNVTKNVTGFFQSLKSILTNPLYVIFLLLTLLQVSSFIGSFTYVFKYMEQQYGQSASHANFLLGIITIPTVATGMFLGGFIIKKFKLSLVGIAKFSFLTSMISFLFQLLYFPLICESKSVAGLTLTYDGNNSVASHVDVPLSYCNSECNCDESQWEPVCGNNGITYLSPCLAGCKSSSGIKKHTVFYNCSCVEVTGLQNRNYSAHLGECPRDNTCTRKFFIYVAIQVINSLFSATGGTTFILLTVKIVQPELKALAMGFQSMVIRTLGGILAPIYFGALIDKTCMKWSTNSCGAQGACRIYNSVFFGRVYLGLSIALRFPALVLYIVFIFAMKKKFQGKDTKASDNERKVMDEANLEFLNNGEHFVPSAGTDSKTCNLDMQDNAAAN
# Description: as §1
# OATP2B1 [6] = details: read-out: IC50 for OATP2B1 inhibition; cited from earlier work
# OATP1B1 [7] = details: read-out: IC50 for inhibition of OATP1B1; cited from earlier work
# OATP1B3 [8] = details: read-out: IC50 for inhibition of OATP1B3; cited from earlier work
# [9] = cited from earlier work
# OATP1B1 [10] = details: cited from earlier work
# OATP1B3 [11] = details: cited from earlier work
# OCT1 (SLC22A1) = system: OCT1 (SLC22A1); design: method as in PMID 21088257; details: cited from earlier work
# OAT2 (SLC22A7) = system: OAT2 (SLC22A7); design: method as in PMID 21088257; details: cited from earlier work
# MRP4 = system: MRP4; design: method as in PMID 21088257; details: cited from earlier work
# [12] = system: breast cancer resistance protein (BCRP/ABCG2); design: method as in PMID 20304939, PMID 21088257; details: cited from earlier work
# [13] = system: P‐glycoprotein (Pgp/ABCB1); design: method as in PMID 20304939, PMID 21088257; details: cited from earlier work
# [14] = system: organic anion transporter 3 (OAT3/SLC22A8); design: method as in PMID 20304939, PMID 21088257; details: cited from earlier work
# [15] = system: organic cation transporter 2 (OCT2/SLC22A2); design: method as in PMID 20304939, PMID 21088257; details: cited from earlier work
# [16] = 3 h after oral dosing, individual subjects
# [17] = 4 h after oral dosing, individual subjects
# [18] = individual subjects, oral 300 mg
structure (smiles),measurement,setting,value
CC(C)c1nc(N(C)S(C)(=O)=O)nc(-c2ccc(F)cc2)c1/C=C/[C@@H](O)C[C@@H](O)CC(=O)O [rosuvastatin],rate of muscle toxicity,[1],34%
COc1cc2ncnc(Nc3ccc(F)c(Cl)c3)c2cc1OCCCN1CCOCC1 [gefitinib],transport by OATP2B1,OATP2B1 [2],transported
C#Cc1cccc(Nc2ncnc3cc(OCCOC)c(OCCO[11CH3])cc23)c1 [[^11C]erlotinib],Michaelis constant (K m) of the saturable component of OATP2B1‐specific uptake,OATP2B1 (SLCO2B1),0.324 ± 0.182 µM
same,incubation time at maximum difference in uptake between OATP2B1 cells and the other cells,"OATP2B1 (SLCO2B1); <0.1 μM, time dependency experiment",10 to 15 min
CO[C@H]1/C=C/O[C@@]2(C)Oc3c(C)c(O)c4c(O)c(c(/C=N/N5CCN(C)CC5)c(O)c4c3C2=O)NC(=O)/C(C)=C\C=C\[C@H](C)[C@H](O)[C@@H](C)[C@@H](O)[C@@H](C)[C@H](OC(C)=O)[C@@H]1C [rifampicin],effect on [^11C]erlotinib uptake in OATP2B1 overexpressing cells,OATP2B1 (SLCO2B1),significantly decreased
Cc1cc(C)c(NC(=O)CN(CC(=O)[O-])CC(=O)[O-])c(C)c1Br.Cc1cc(C)c(NC(=O)CN(CC(=O)[O-])CC(=O)[O-])c(C)c1Br.[99Tc+4] [[^99mTc]mebrofenin],increase in the efflux clearance from liver to blood,[3],517%
same,reduction in CL uptake,[3],46%
C#Cc1cccc(Nc2ncnc3cc(OCCOC)c(OCCOC)cc23)c1 [erlotinib],"CPET, plasma concentration at time of the PET scan",[4]; [16],3.30 µM and 4.12 µM and 4.73 µM and 4.91 µM and 2.66 µM and 4.61 µM
same,"CPET,unbound",[4]; [16],"0.12 µM and 0.20 µM and 0.10, 0.10 µM and 0.28 µM"
same,"CPET, plasma concentration at time of the PET scan",[4]; [17],3.33 µM and 4.50 µM and 4.74 µM and 5.63 µM and 2.71 µM and 4.92 µM
same,"CPET,unbound",[4]; [17],"0.13 µM and 0.23 µM and 0.10, 0.10 µM and 0.30 µM"
same,Cmax,"[4]; both sexes, human, plasma, po, 300 mg, oral 300 mg, mean ± SD, read-out: Maximum plasma concentration (C max), mean",4.6 ± 1.3 µM
same,AUC0-∞,[4]; [18],68.1 µM·h and 94.0 µM·h and 72.0 µM·h and 102.8 µM·h and 36.6 µM·h and 187.8 µM·h
same,"T1/2, terminal elimination half-life",[4]; [18],14.1 h and 12.5 h and 9.2 h and 11.3 h and 5.4 h and 28.7 h
same,Tmax,[4]; [18],2 h and 6 h and 4 h
same,Cmax,"[4]; individual subjects, oral 300 mg, read-out: Cmax",3.51 µM and 5.03 µM and 4.74 µM and 6.43 µM and 2.83 µM and 4.92 µM
same,plasma concentration at the time of the PET scan,[4]; mean of values at 3 h and 4 h after oral intake of 300 mg,4.2 ± 1.0 µM
same,unbound plasma concentration at the time of the PET scan,"[4]; mean, oral 300 mg",0.18 µM
same,"time of C max, median",[4]; oral 300 mg,5 h
same,"time of C max, range",[4]; oral 300 mg,2 to 6 h
same,"tolerability, adverse events",[5],well tolerated by all subjects with no occurrence of adverse events
same,Michaelis constant (K m) of the saturable component of OATP2B1‐specific uptake,OATP2B1 (SLCO2B1),0.32 µM
same,effect on [^11C]erlotinib uptake in OATP2B1 overexpressing cells,OATP2B1 (SLCO2B1),significantly decreased
same,effect on [^11C]erlotinib uptake in OATP1B1 overexpressing cells,OATP1B1 (SLCO1B1),no effect
same,effect on [^11C]erlotinib uptake in OATP1B3 overexpressing cells,OATP1B3 (SLCO1B3),no effect
same,IC50,OATP2B1 [6],30 nM
same,IC50,OATP1B1 [7],104000 nM
same,IC50,OATP1B3 [8],1190 nM
same,logP,[9],4.19
same,transport by OATP1B1,OATP1B1 [10],not to be transported
same,transport by OATP1B3,OATP1B3 [11],not to be transported
same,substrate of OCT1,OCT1 (SLC22A1),not a substrate
same,substrate of OAT2,OAT2 (SLC22A7),not a substrate
same,transport by MRP4,MRP4,not to be transported
same,substrate of BCRP,[12],substrate
same,substrate of Pgp,[13],substrate
same,substrate of OAT3,[14],substrate
same,substrate of OCT2,[15],substrate
